From US20080213219A1, “Methods for treatment and management of macular degeneration using 3-(4-amino-1-oxo-1,3-dihydro-isoindol-2-yl)-piperidine-2,6-dione” (Celgene Corporation, priority 2002, published 2008)
pIC50: −log10 of the molar value.

Key:
laser-induced CNVM = details: intravitreal injection, monkeys; cited from earlier work
MD [1] = details: intravitreal injection, one-year period, patients with MD; cited from earlier work
MD [2] = details: cited from earlier work
[3] = test system: TNF-α, IL1β, IL6, IL10 production; assay: LPS-stimulated cytokine production by PBMC; assay type: cell-based
TNF-α production [4] = assay: Inhibition of TNF-α production following LPS-stimulation of human whole blood; assay type: cell-based; details: LPS-stimulated human whole blood; read-out: IC50 for inhibiting production of TNF-α
Description: (§1) In a specific embodiment, inhibitions of TNF-α production following LPS-stimulation of human PBMC and human whole blood by 3-(4-amino-1-oxo-1,3-dihydro-isoindol-2-yl)-piperidine-2,6-dione, 4-(amino)-2-(2,6-dioxo-(3-piperidyl))-isoindoline-1,3-dione or thalidomide were investigated in vitro.

TNF-α production [5] = assay: Inhibition of TNF-α production following LPS-stimulation of human PBMC; assay type: cell-based; details: LPS-stimulated PBMC, read-out: IC50 for inhibiting production of TNF-α
Description: as §1

macular degeneration = assay: Clinical study in patients with macular degeneration, adjuvant to photodynamic therapy with verteporfin; assay type: in vivo; details: about 10 mg/day for 20 weeks as adjuvant to verteporfin photodynamic therapy
Description: Immunomodulatory compounds are administered in an amount of about 0.1 to about 25 mg per day to patients with macular degeneration. In a specific embodiment, clinical studies are performed with forty patients with macular degeneration, who are divided into two groups. The first group receives conventional treatment for closing the leaking choroidal vessels (characteristic of this disease) by photodynamic therapy with verteporfin. Opthalmol 1999 (117): 1329-1345. The second group receives the same conventional therapy with verteporfin and 3-(4-amino-1-oxo-1,3-dihydro-isoindol-2-yl)-piperidine-2,6-dione in an amount of about 10 mg/day as an adjuvant for 20 weeks.
However, the first group without 3-(4-amino-1-oxo-1,3-dihydro-isoindol-2-yl)-piperidine-2,6-dione experiences progressive reperfusion of the ablated vessels several weeks after treatment. Progressive visual loss follows which requires the photodynamic therapy to be repeated.

Molecule | growth of laser-induced CNVM (laser-induced CNVM) | prevention of severe visual loss (MD [1]) | efficacy at treating MD (MD [2]; clinical trial) | rate of adverse effects (MD [2]; in vivo) | LPS-stimulated production of IL1β [3] | LPS-stimulated production of IL6 [3] | LPS-stimulated production of TNF-α [3] | production of the anti-inflammatory cytokine IL10 [3] | pIC50 (TNF-α production [4]) | pIC50 (TNF-α production [5]) | neovascular cascade / duration of the effects of photodynamic therapy (macular degeneration)
C[C@]12C=CC(=O)C=C1CC[C@H]1[C@@H]3C[C@@H](O)[C@](O)(C(=O)CO)[C@@]3(C)C[C@H](O)[C@@]12F [triamcinolone] | inhibits | fails to prevent |  |  |  |  |  |  |  |  | 
interferon-α |  |  | ineffective | high rate of adverse effects |  |  |  |  |  |  | 
Nc1cccc2c1C(=O)N(C1CCC(=O)NC1=O)C2=O (centres unmarked) [4-(Amino)-2-(2,6-dioxo(3-piperidyl))-isoindoline-1,3-dione] |  |  |  |  | dose-dependent inhibition | dose-dependent inhibition | dose-dependent inhibition | increased production | ~7.60 | ~7.62 | 
Nc1cccc2c1CN(C1CCC(=O)NC1=O)C2=O (centres unmarked) [3-(4-Amino-1-oxo-1,3-dihydro-isoindol-2-yl)-piperidine-2,6-dione] |  |  |  |  | dose-dependent inhibition | dose-dependent inhibition | dose-dependent inhibition | increased production | ~6.32 | ~7.00 | sufficiently hindered
